Several values for one entry are separate records, joined by “and”; a condition that tells them apart may be missing. Equal entries are not always repeated.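 96-well plates; 48 h exposure; 5 concentrations. Endpoints by linear interpolation between flanking doses. Not reached: highest tested concentration assigned. Abbreviation: GI50, concentration required for 50% inhibition of growth. TGI is the concentration that stops growth completely.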 Where only a bound is given, the exact number is not on record here.

The values below come from PubChem BioAssay (NCI).

The experiment deals with T-47D breast. Put plainly: NCI anticancer screen, dose series, 48 h.
Consider `Cn1c(/C(C#N)=C/c2ccc3ccccc3c2)cc2ccccc21`, for which the TGI was above 100 µM.
`CCC(=C(c1ccc(OCCCN(C)C)cc1)c1ccc(OCCCN(C)C)cc1)c1ccc(Cl)cc1`: the GI50 is 0.86 µM and the TGI is 3.16 µM.
Taken in the same sequence, the figures for `CCCCCCCCCCCCCCCCCCNC(=O)[C@H]1CSC(c2cccs2)N1` (stereo partly specified) were 0.892 µM and 1.84 µM.
Taken in the same sequence, the figures for `COCCOCCOCc1n(Cc2ccc3ccccc3n2)c2ccccc2[n+]1Cc1ccc2ccccc2c1` were 0.293 µM and 2.08 µM.
Taken in the same sequence, the figures for `C=C(CN1CCc2ccccc2C1)c1ccc(C(=O)Nc2ccccc2N)cc1` were above 15.8 µM and above 39 µM.
Consider `CC(=O)N[C@H](C(=O)N[C@@H](CCCNC(=N)N)C(=O)N[C@@H](CCCCN)C(=O)N[C@@H](CCCNC(=N)N)C(=O)N[C@]1(C)CCCCCC/C=C\CCC[C@@](C)(C(=O)N[C@@H](CCCNC(=N)N)C(=O)N[C@@H](CCC(=O)O)C(=O)N[C@@H](CC(C)C)C(=O)N[C@H](C(=O)N[C@@H](CCC(=O)O)C(N)=O)C(C)C)NC(=O)[C@H](CCC(N)=O)NC(=O)[C@H](CC(C)C)NC(=O)[C@H](CC(C)C)NC(=O)[C@H](CCCNC(=N)N)NC(=O)[C@H](CCCNC(=N)N)NC(=O)[C@H](CC(C)C)NC1=O)C(C)C`, for which the GI50 was 1.03 µM and the TGI came out at 2.31 µM.
With `c1ccc2nc3c(cc4ccccn43)nc2c1`, the GI50 is 88.1 µM and the TGI was above 100 µM.
The like results for `O=S(=O)(CCOCc1ccc(-c2ccc3ncnc(Nc4ccc(OCc5cccc(F)c5)c(Cl)c4)c3c2)o1)c1ccccc1` were, in that order, above 6.73 µM and above 25 µM.
The like results for `O=S1(=O)NCCCN1CCNc1nccc(-c2c(-c3cccc(O)c3)nc3sccn23)n1` were, in that order, 23.3 µM and above 100 µM.
Taken in the same sequence, the figures for `CCCCCCCCCCCC[n+]1ccccc1` (tested in a mixture with another compound) were 0.375 µM and 3.94 µM.
Regarding `O=C(c1ccc2ccccc2c1)c1c(C(F)(F)F)n([O-])c2ccc(Cl)cc2[n+]1=O`, the GI50 is 0.453 µM and the TGI was 1.78 µM.
The like results for `NC(=O)C1(N2CCCCC2)CCN(CCCC(=O)c2ccc(F)cc2)CC1` were, in that order, above 100 µM and above 100 µM.
Taken in the same sequence, the figures for `CNC(=O)c1cc2c(Oc3ccc(NC(=O)C4(C(=O)Nc5ccc(F)cc5)CC4)cc3)ccnc2cc1OC` were 2.71 µM and 16.3 µM.
The like results for `O=C(O)CCC(NC(=S)S)C(=O)O.[Na+].[Zn+2]` (stereo unspecified) were, in that order, above 50 µM and above 50 µM.
Regarding `Cn1c([N+](=O)[O-])cnc1/C=C1\Oc2cc(Cl)ccc2C1=O`, the GI50 was 21.5 µM and the TGI was above 100 µM.
On to `CCSc1nc(N)c2cn[nH]c2n1`, for which the GI50 was 17.6 µM and the TGI amounted to 56.4 µM.
Taken in the same sequence, the figures for `NC(=O)c1cccc(Nc2nccc(Nc3cccc(F)c3)n2)c1` were 4.38 µM and 16.5 µM.
The like results for `CCN(CC)CCNC(=O)c1cn2ncnc(Oc3ccc(NC(=O)Nc4ccc(Cl)c(C(F)(F)F)c4)c(F)c3)c2c1C` were, in that order, 1.83 µM and 4 µM.
The like results for `O=c1c2c3c(sc2n2c(-c4cc(-c5ccccc5)nn4-c4ccccc4)nnc2n1Cc1ccccc1)CCCC3` were, in that order, above 100 µM and above 100 µM.
Take `CC1CCCc2c1nn(C(=O)/C=C(\N)c1ccccc1)c2N` (stereo unspecified): the GI50 was 3.71 µM and the TGI is 95.1 µM.
Turning to `Cc1ncc(C(=O)Nc2ccc(CN3CCN(C)CC3)c(C(F)(F)F)c2)cc1C#Cc1cnc(NC2CC2)c2ncccc12`, the GI50 was 5.68 µM and the TGI was found to be 13.5 µM.
Taken in the same sequence, the figures for `CCCCCCCCCCN=C(c1ccc(N(C)C)cc1)c1ccc(N(C)C)cc1` were 0.6 µM and above 54 µM.
As to `CCN(CC)CCNC(=O)c1c(C)[nH]c(/C=C2\C(=O)Nc3ccc(F)cc32)c1C`, the GI50 is > 10 µM and > 20 µM and 15.9 µM; the TGI was > 10 µM and > 20 µM and 35.3 µM.
Consider `CCOC1Oc2ccccc2-c2oc(=O)c(Sc3ccc(C)cc3)cc21` (stereo unspecified), for which the GI50 was 1.63 µM and the TGI was found to be 56.4 µM.
As for `Cc1nc(Nc2n[nH]c3c2CN(C(=O)N[C@H](CN(C)C)c2ccccc2)C3(C)C)c2sccc2n1`, the GI50 is 0.0942 µM and 0.562 µM; the TGI was 5.47 µM and 8.67 µM.
Consider `O=C(/C=C/c1ccccc1)CC(c1ccccc1)N1CCOCC1` (stereo unspecified), for which the GI50 is 4.26 µM and the TGI is 23.5 µM.
